Measurements taken from patent publication US20180282275A1, “New alkynyl-substituted 3-phenylpyrrolidine-2,4-diones and use thereof as herbicides” (Bayer CropScience Aktiengesellschaft, priority 2015, published 2018).

Legend:
Format in all cases: in vivo
Cyperus esculentus = test: Pre-emergence herbicidal effect, greenhouse pot test; conditions: 320 g a.i./ha, visual score after 3 weeks, 100% = plants have died, 0% = like control
Source text: (§1) Seeds of monocotyledonous and dicotyledonous weed plants and crop plants are laid out in wood-fibre pots in sandy loam and covered with soil. The compounds according to the invention formulated in the form of wettable powders (WP) or as emulsion concentrates (EC) are then applied as aqueous suspension or emulsion at a water application rate of 600 to 800 l/ha (converted) with the addition of 0.2% wetting agent to the surface of the covering soil. After the treatment, the pots are placed in a greenhouse and kept under good growth conditions for the trial plants. The damage to the test plants is scored visually after a test period of 3 weeks by comparison with untreated controls (herbicidal activity in percent (%): 100% activity=the plants have died, 0% activity=like control plants). [table]

Hordeum murinum [1] = test: as above; conditions: 320 g a.i./ha, visual score after 3 weeks, 100% = plants have died, 0% = like control
Source text: as §1

Lolium rigidium [2] = test: as above; conditions: 320 g a.i./ha, visual score after 3 weeks, 100% = plants have died, 0% = like control
Source text: as §1

Hordeum murinum [3] = test: Post-emergence herbicidal effect, greenhouse pot test; conditions: 80 g a.i./ha, one-leaf stage, visual score after about 3 weeks, 100% = plants have died
Description: (§2) [table] Seeds of monocotyledonous and dicotyledonous weed and crop plants are laid out in sandy loam in wood-fibre pots, covered with soil and cultivated in a greenhouse under good growth conditions. 2 to 3 weeks after sowing, the test plants are treated at the one-leaf stage. The compounds according to the invention, formulated in the form of wettable powders (WP) or as emulsion concentrates (EC), are then sprayed as aqueous suspension or emulsion at a water application rate of 600 to 800 l/ha (converted) with the addition of 0.2% of wetting agent onto the green parts of the plants. After the test plants have been left to stand in the greenhouse under optimal growth conditions for about 3 weeks, the action of the preparations is assessed visually in comparison to untreated controls (herbicidal action in percent (%): 100% activity=the plants have died, 0% activity=like control plants).

Stellaria media = test: as above; conditions: 80 g a.i./ha, one-leaf stage, visual score after about 3 weeks, 100% = plants have died
Description: as §2

Avena fatua [4] = test: as above; conditions: 80 g a.i./ha, one-leaf stage, visual score after about 3 weeks, 100% = plants have died
Description: as §2

Lolium rigidium [5] = test: as above; conditions: 80 g a.i./ha, one-leaf stage, visual score after about 3 weeks, 100% = plants have died
Description: as §2

Echinochloa crus-galli [6] = test: Pre-emergence herbicidal effect, greenhouse pot test; conditions: 504 h, 320 g a.i./ha, visual score after 3 weeks, 100% = plants have died, 0% = like control, read-out: Herbicidal effect against [%] ECHCG
Source text: as §1

Setaria viridis [7] = test: as above; conditions: 504 h, 320 g a.i./ha, visual score after 3 weeks, 100% = plants have died, 0% = like control, read-out: Herbicidal effect against [%] SETVI
Source text: as §1

Alopecurus myosuroides [8] = test: as above; conditions: 504 h, 320 g a.i./ha, visual score after 3 weeks, 100% = plants have died, 0% = like control, read-out: Herbicidal effect against [%] ALOMY
Source text: as §1

Echinochloa crus-galli [9] = test: Post-emergence herbicidal effect, greenhouse pot test; conditions: 504 h, 80 g a.i./ha, one-leaf stage, visual score after about 3 weeks, 100% = plants have died, read-out: Herbicidal effect against [%] ECHCG
Description: as §2

Setaria viridis [10] = test: as above; conditions: 504 h, 80 g a.i./ha, one-leaf stage, visual score after about 3 weeks, 100% = plants have died, read-out: Herbicidal effect against [%] SETVI
Description: as §2

Alopecurus myosuroides [11] = test: as above; conditions: 504 h, 80 g a.i./ha, one-leaf stage, visual score after about 3 weeks, 100% = plants have died, read-out: Herbicidal effect against [%] ALOMY
Description: as §2

Avena fatua [12] = test: Pre-emergence herbicidal effect, greenhouse pot test; conditions: 504 h, 320 g a.i./ha, visual score after 3 weeks, 100% = plants have died, 0% = like control, read-out: Herbicidal effect against [%] AVEFA
Source text: as §1

Compound | Herbicidal effect against [%] CYPES (Cyperus esculentus) [%] | Herbicidal effect against [%] HORMU (Hordeum murinum [1]) [%] | Herbicidal effect against [%] LOLRI (Lolium rigidium [2]) [%] | Herbicidal effect against [%] HORMU (Hordeum murinum [3]) [%] | Herbicidal effect against [%] STEME (Stellaria media) [%] | Herbicidal effect against [%] AVEFA (Avena fatua [4]) [%] | Herbicidal effect against [%] LOLRI (Lolium rigidium [5]) [%] | pest or weed control at 320 g/ha (Echinochloa crus-galli [6]) [%] | pest or weed control at 320 g/ha (Setaria viridis [7]) [%] | pest or weed control at 320 g/ha (Alopecurus myosuroides [8]) [%] | pest or weed control at 80 g/ha (Echinochloa crus-galli [9]) [%] | pest or weed control at 80 g/ha (Setaria viridis [10]) [%] | pest or weed control at 80 g/ha (Alopecurus myosuroides [11]) [%] | pest or weed control at 320 g/ha (Avena fatua [12]) [%]
CC#Cc1cc(C)c(C2=C(OC(=O)OCC)C3(CCC(OCC)CC3)NC2=O)c(C)c1 (single isomer, unassigned) [Example P6] | 90 | 90 | 100 | 80 | 20 | 90 | 100 |  |  |  |  |  |  | 
CC#Cc1cc(C)c(C2=C(O)C3(CCC(OCC)CC3)NC2=O)c(C)c1 (centres unmarked) [Example D6] | 100 | 100 | 100 | 100 | 90 | 100 | 100 | 80 to 100 | 80 to 100 | 80 to 100 | 80 to 100 | 80 to 100 | 80 to 100 | 
CC#Cc1cc(C)c(C2=C(O)C3(CCC(OCC)CC3)NC2=O)c(CC)c1 (centres unmarked) [Example D4] | 70 | 100 | 100 | 100 | 10 | 100 | 100 | 80 to 100 | 80 to 100 | 80 to 100 | 80 to 100 | 80 to 100 | 80 to 100 | 80 to 100
CC#Cc1cc(C)c(C2=C(OC(=O)OCC)C3(CCC(OCC)CC3)NC2=O)c(C)c1 (single isomer, unassigned) [Example P5] | 100 | 100 | 100 | 100 | 100 | 100 | 100 | 80 to 100 | 80 to 100 | 80 to 100 | 80 to 100 | 80 to 100 | 80 to 100 | 80 to 100
CC#Cc1cc(C)c(C2=C(OC(=O)OC)C3(CCC(OCC)CC3)NC2=O)c(C)c1 (centres unmarked) [Example P7] | 100 | 100 | 100 | 100 | 100 | 100 | 100 | 80 to 100 | 80 to 100 | 80 to 100 | 80 to 100 | 80 to 100 | 80 to 100 | 80 to 100
CC#Cc1cc(C)c(C2=C(OC(=O)OCC)C3(CCC(OCC)CC3)NC2=O)c(CC)c1 (centres unmarked) [Example P9] | 60 | 100 | 100 | 100 | 40 | 100 | 100 |  |  |  |  |  |  | 
CC#Cc1cc(C)c(C2=C(O)C3(CCC(OCC)CC3)NC2=O)c(CC)c1 (centres unmarked) [Example S4] | 60 | 100 | 100 | 100 | 10 | 100 | 100 |  |  |  |  |  |  | 
CC#Cc1cc(C)c(C2=C(O)C3(CCC(OCC)CC3)NC2=O)c(C)c1 (centres unmarked) [Example S3] | 80 | 100 | 100 | 100 | 100 | 100 | 100 |  |  |  |  |  |  | 
CC#Cc1cc(C)c(C2=C(O)C3(CCC(OCC)CC3)NC2=O)c(C)c1 (centres unmarked) [Example D7] |  | 100 | 100 | 60 | 20 | 100 | 100 |  |  |  |  |  |  | 
CC#Cc1cc(C)c(C2=C(OC(=O)C(C)C)C3(CCC(OCC)CC3)NC2=O)c(C)c1 (centres unmarked) [Example P8] | 100 | 100 | 100 | 100 | 60 | 100 | 100 | 80 to 100 | 80 to 100 | 80 to 100 | 80 to 100 | 80 to 100 | 80 to 100 | 80 to 100
CC#Cc1cc(C)c(C2=C(OC(=O)OCC)C3(CCC(OCC)CC3)NC2=O)c(CC)c1 (centres unmarked) [Example P10] |  | 90 | 100 | 100 | 10 | 90 | 100 | 80 to 100 | 80 to 100 | 80 to 100 | 80 to 100 | 80 to 100 | 80 to 100 | 80 to 100
